17 compounds from US9404081B2, “Pyruvate kinase activators for use in therapy” (AGIOS PHARMACEUTICALS, INC., priority 2011, dated 2016) can be followed below.

What all share (type): biochemical
Test [1] concerns the target PKR T384W (Homo sapiens, UniProt P30613, T384W). Briefly: PKR T384W Single Point Percent Activation Assay. Particulars: for activation at 1 µM: read-out: Act. % 384W. The essentials: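 Soluble PKR T384W (300 ng/well) preincubated 60 min at RT with 1 μM compound in 50 mM Tris pH 7.5, 100 mM KCl, 5 mM MgCl2, 1 mM DTT, 0.03% BSA. Started with ADP (0.08 mM); PEP 0.23 mM, LDH-coupled NADH (180 μM) consumption read at OD340, room temperature.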

The next test has as its target PKR wt (Homo sapiens, UniProt P30613). The experiment in a line: PKR WT Single Point Percent Activation Assay. In short, it runs like this:
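Single concentration of 1 μM compound preincubated 60 min at RT with PKR wt (100 ng/well) in Tris pH 7.5, KCl, MgCl2, DTT, BSA. Reaction started with ADP (0.48 mM final) with PEP 0.15 mM, coupled LDH/NADH (180 μM), read at OD340, room temperature; given as percent activation.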

Test [2] addresses T1, PKR R532W (Homo sapiens, UniProt P30613, R532W). The experiment in a line: PKR R532W Single Point Percent Activation Assay. Particulars: for activation at 1 µM: read-out: Act, % 532W; for Act, % 532W: % activation at 1 μM. The essentials: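 PKR R532W (100 ng/well) preincubated 60 min at RT with compound at 1 μM in Tris pH 7.5, KCl, MgCl2, DTT, BSA. Reaction started with ADP (0.36 mM), with PEP 0.1 mM, NADH 180 μM and LDH coupling; read at OD340, room temperature.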

Test [3] concerns the target T2, PKR R510Q (Homo sapiens, UniProt P30613, R510Q). Briefly: PKR R510Q Single Point Percent Activation Assay. Particulars: for activation at 1 µM: read-out: Act. % 510Q. The essentials: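 Test compound was used at a single concentration of 1 μM and preincubated 60 min at room temperature with PKR R510Q (40 ng/well). The buffer was 50 mM Tris pH 7.5, 100 mM KCl, 5 mM MgCl2, 1 mM DTT and 0.03% BSA. The reaction was started with 0.2 mM ADP and read as OD340 in an LDH-coupled system (0.11 mM PEP, 180 μM NADH).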

The target of test [4] is T2, PKR R510Q. The experiment in a line: PKR Mutant Assay (AC50), PKR R510Q. The protocol:
(§1) • PKR or PKR mutant enzyme solution was diluted in assay buffer. • 2 μL of test compound was added into wells first, and then 180 μL reaction mix was added. • Reactions mixture with test compound was assembled except for ADP, and plates were stored for 60 minutes at room temperature. • 20 uL ADP was added to start reaction at room temperature and reaction progress was measured as changes in absorbance at 340 nm wavelength at room temperature.
(§2) Test Compound Preparation: • Test compound stock was made at 100× concentration in 100% DMSO (10 mM) • 1 to 3 dilutions were made for 11 points (i.e. 50 μl of first concentration added to 100 μl 100% DMSO to yield 3.33 mM, 50 μl of this added to 100 μl DMSO to yield 1.11 mM, and so forth) • 1 to 100 dilution into assay (2 μl in 200 μl) yielded starting concentration of 100 μM, decreasing 3 fold for 11 points. Assay Buffer: 100 mM KCl, 50 mM Tris 7.5, 5 mM MgCl2, 1 mM DTT, 0.03% BSA Reaction Mixture: PKR mutant enzyme: 80-400 ng/well; ADP: 0.22-1.65 mM; PEP: 0.1-0.5 mM; NADH: 180 uM; LDH: 0.5 units (Sigma#59023); DTT: 1 mM; BSA: 0.03%.

Test [5] has as its target T1, PKR R532W. The experiment in a line: PKR Mutant Assay (AC50), PKR R532W. The protocol:
as §1, §2

The next test deals with wild type PKR (Homo sapiens, UniProt P30613). Briefly: PKR Mutant Assay (AC50), wild type PKR. Particulars: read-out: PKR WT AC50. The protocol: as §1, §2
A further test addresses PKR R479H (Homo sapiens, UniProt P30613, R479H). Briefly: PKR Mutant Assay (AC50), PKR R479H. The protocol:
as §1, §2

For test [6], the target named is PKR T384W (Homo sapiens, UniProt P30613). The experiment in a line: PKR Mutant Assay (AC50), PKR T384W. How it is done: as §1, §2
The target of a further test is PKR G364D (Homo sapiens, UniProt P30613, G364D). Briefly: PKR Mutant Assay (AC50), PKR G364D. The protocol: as §1, §2
PKR G364D, sequence (P30613 whole entry G364D): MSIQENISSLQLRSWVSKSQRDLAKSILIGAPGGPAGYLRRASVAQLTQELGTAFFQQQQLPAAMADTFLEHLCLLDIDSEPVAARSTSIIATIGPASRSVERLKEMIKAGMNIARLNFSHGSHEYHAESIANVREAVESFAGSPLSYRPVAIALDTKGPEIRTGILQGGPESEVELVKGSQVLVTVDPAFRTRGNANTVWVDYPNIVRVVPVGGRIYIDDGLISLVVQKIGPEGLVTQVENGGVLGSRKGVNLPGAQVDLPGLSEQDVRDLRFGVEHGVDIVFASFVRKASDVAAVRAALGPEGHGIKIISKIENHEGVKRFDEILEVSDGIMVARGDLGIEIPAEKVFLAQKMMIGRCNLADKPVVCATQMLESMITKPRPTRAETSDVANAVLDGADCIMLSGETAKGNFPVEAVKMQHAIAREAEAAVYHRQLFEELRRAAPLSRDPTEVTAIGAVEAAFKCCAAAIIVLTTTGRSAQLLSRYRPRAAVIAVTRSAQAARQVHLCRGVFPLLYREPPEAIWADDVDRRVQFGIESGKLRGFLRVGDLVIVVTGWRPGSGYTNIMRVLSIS

wild type PKR, sequence (P30613 whole entry): as the sequence (P30613 whole entry G364D) above, with D364G counted along it
PKR wt, sequence (P30613 whole entry): as the sequence (P30613 whole entry G364D) above, with D364G counted along it
T2 sequence (P30613 whole entry R510Q): as the sequence (P30613 whole entry G364D) above, with D364G, R510Q counted along it
PKR T384W (Homo sapiens, UniProt P30613, T384W), sequence (P30613 whole entry T384W): as the sequence (P30613 whole entry G364D) above, with D364G, T384W counted along it
PKR R479H, sequence (P30613 whole entry R479H): as the sequence (P30613 whole entry G364D) above, with D364G, R479H counted along it
T1 sequence (P30613 whole entry R532W): as the sequence (P30613 whole entry G364D) above, with D364G, R532W counted along it
PKR T384W (Homo sapiens, UniProt P30613), sequence (P30613 whole entry T384M): as the sequence (P30613 whole entry G364D) above, with D364G, T384M counted along it

In the case of `CC1CN(Cc2ccccc2)CC(C)N1C(=O)c1ccc(NS(=O)(=O)c2cccc3cccnc23)cc1` (centres unmarked), the activation at 1 µM at PKR T384W [1], on PKR wt, on PKR R532W [2] and on PKR R510Q [3] was 101 to 500% throughout. In addition, the AC50 – broadly, the midpoint of the concentration-response curve, whichever way the signal moves – on PKR R510Q [4] was below 100 nM.

With `C[C@@H]1CN(C(=O)c2ccc(NS(=O)(=O)c3cccc4cccnc34)cc2)CCN1Cc1ccccc1`, the activation at 1 µM on PKR T384W [1], at PKR wt, at PKR R532W [2] and on PKR R510Q [3] was 101 to 500% throughout.

On to `CC(C)OC(=O)N1[C@H](C)CN(C(=O)c2ccc(NS(=O)(=O)c3cccc4cccnc34)cc2)C[C@@H]1C`, for which the activation at 1 µM on PKR T384W [1], at PKR wt, on PKR R532W [2] and at PKR R510Q [3] was 101 to 500% throughout. Besides, the AC50 is above 500 nM on PKR R532W [5] and below 100 nM at wild type PKR.

As to `CCOC(=O)N1CCN(C(=O)c2ccc(NS(=O)(=O)c3cccc4cccnc34)cc2)[C@@H](C)C1`, the activation at 1 µM on PKR T384W [1] lay in the range of 101 to 500%; on PKR wt, 101 to 500%; at PKR R532W [2] it was 101 to 500%; on PKR R510Q [3], 1 to 100%. In addition, the AC50 at PKR R532W [5] and on wild type PKR was above 500 nM in each case.

As to `CC(C)OC(=O)N1CCN(C(=O)c2ccc(NS(=O)(=O)c3cccc4cccnc34)cc2)[C@H](C)C1`, the activation at 1 µM on PKR T384W [1], on PKR wt, at PKR R532W [2] and at PKR R510Q [3] was 101 to 500% in each case. Also, the AC50 was below 100 nM on PKR R532W [5], below 100 nM at wild type PKR and above 500 nM at PKR R510Q [4].

Regarding `CC[C@H]1CN(Cc2cc(F)cc(F)c2)CCN1C(=O)c1ccc(NS(=O)(=O)c2cccc3cccnc23)cc1`, the activation at 1 µM at PKR T384W [1], at PKR wt, on PKR R532W [2] and at PKR R510Q [3] was 101 to 500% throughout.

In the case of `C[C@H]1CN(Cc2cc(F)cc(F)c2F)CCN1C(=O)c1ccc(NS(=O)(=O)c2cccc3cccnc23)cc1`, the activation at 1 µM on PKR T384W [1] fell in the range of 101 to 500%; at PKR wt, 101 to 500%; at PKR R532W [2], 1 to 100%; at PKR R510Q [3] it was 1 to 100%.

On to `C[C@H]1CN(Cc2ccc(Cl)c(F)c2)CCN1C(=O)c1ccc(NS(=O)(=O)c2cccc3cccnc23)cc1`, for which the activation at 1 µM on PKR T384W [1] was 1 to 100%; at PKR wt, 101 to 500%; on PKR R532W [2], 101 to 500%; at PKR R510Q [3], 101 to 500%.

As for `C[C@H]1CN(CC2CCOC2)CCN1C(=O)c1ccc(NS(=O)(=O)c2cccc3cccnc23)cc1` (some centres unmarked), the activation at 1 µM at PKR T384W [1] was 1 to 100%; on PKR wt, 101 to 500%; on PKR R532W [2], 1 to 100%; on PKR R510Q [3] it was 101 to 500%.

As to `C[C@H]1CN(CC2CCCC2)CCN1C(=O)c1ccc(NS(=O)(=O)c2cccc3cccnc23)cc1`, the activation at 1 µM on PKR T384W [1] is 101 to 500%; at PKR wt, 101 to 500%; at PKR R532W [2], 1 to 100%; on PKR R510Q [3], 101 to 500%.

On to `C[C@H]1CN(Cc2c(F)ccc(F)c2F)CCN1C(=O)c1ccc(NS(=O)(=O)c2cccc3cccnc23)cc1`, for which the activation at 1 µM lay in the range of 101 to 500% at PKR T384W [1], 101 to 500% on PKR wt, 1 to 100% at PKR R532W [2] and 1 to 100% at PKR R510Q [3].

On to `C[C@H]1CN(Cc2cc(F)cc(F)c2)CCN1C(=O)c1ccc(NS(=O)(=O)c2cccc3cccnc23)cc1`, for which the activation at 1 µM is 101 to 500% on PKR T384W [1], 101 to 500% at PKR wt, 1 to 100% on PKR R532W [2] and 101 to 500% at PKR R510Q [3].

`COc1ccccc1N1CCN(C(=O)c2ccc(NS(=O)(=O)c3cccc4cccnc34)cc2)C(C)C1` (centres unmarked): the activation at 1 µM at PKR T384W [1], on PKR wt, at PKR R532W [2] and at PKR R510Q [3] was 101 to 500% throughout. In addition, the AC50 on PKR R479H is below 100 nM; on PKR T384W [6], below 100 nM; on PKR G364D, 101 to 500 nM; at PKR R532W [5] it was below 100 nM; at wild type PKR it was below 100 nM; on PKR R510Q [4] it was above 500 nM.

On to `O=C(c1ccc(NS(=O)(=O)c2cccc3cccnc23)cc1)N1CCN(C[C@H]2CCOC2)CC1`, for which the activation at 1 µM on PKR T384W [1] was 101 to 500%; at PKR wt, 101 to 500%; on PKR R532W [2] it was 1 to 100%; at PKR R510Q [3], 101 to 500%. Further, the AC50 on PKR R479H is below 100 nM; at PKR T384W [6], below 100 nM; at PKR R532W [5], below 100 nM; at wild type PKR, below 100 nM; at PKR R510Q [4], 101 to 500 nM.

Turning to `O=C(c1ccc(NS(=O)(=O)c2cccc3cccnc23)cc1)N1CCN(C[C@@H]2CCOC2)CC1`, the activation at 1 µM at PKR T384W [1] lay in the range of 101 to 500%; on PKR wt, 1 to 100%; at PKR R532W [2], 1 to 100%; on PKR R510Q [3], 101 to 500%. The AC50 on PKR R479H was below 100 nM; on PKR T384W [6] it was below 100 nM; at PKR R532W [5], below 100 nM; at wild type PKR, below 100 nM; at PKR R510Q [4] it was 101 to 500 nM.

For the compound `C[C@H]1CN(Cc2ccc(F)c(F)c2F)CCN1C(=O)c1ccc(NS(=O)(=O)c2cccc3cccnc23)cc1` [drawing 66], the activation at 1 µM on PKR T384W [1], on PKR wt and on PKR R510Q [3] was 1 to 100% in each case. In addition, the “Act, % 532W” value on PKR R532W [2] is recorded as “A (a % activation at 1 μM of from 1 to 100)”.

For `C[C@H]1CN(Cc2ccc(F)c(F)c2F)CCN1C(=O)c1ccc(NS(=O)(=O)c2cccc3cccnc23)cc1` [drawing 87], at PKR T384W [1] (% activation at 1 μM), the “Act. % 384W” value is given as “A (a % activation at 1 μM of from 1 to 100)”. In addition, on PKR wt (% activation at 1 μM), the “Act. % WT” value is given as “A (a % activation at 1 μM of from 1 to 100)”. In addition, the “Act, % 532W” value on PKR R532W [2] is recorded as “B (a % activation at 1 μM of from 101 to 500)”. For the same compound, at PKR R510Q [3] (% activation at 1 μM), the “Act. % 510Q” value is given as “A (a % activation at 1 μM of from 1 to 100)”.
